Experimental data as given in ChEMBL document CHEMBL1201862, “PubChem BioAssay data set” (2004).
The source made the active and inactive calls.

Tests used:
[1] = biological target: T1, Ubiquitin-conjugating enzyme E2 N (Homo sapiens, UniProt P61088); assay type: functional;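 also: Dose-response confirmation in a TR-FRET assay detecting UBC13-driven polyubiquitin chain formation, inhibition measured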
T1 sequence (P61088 whole entry): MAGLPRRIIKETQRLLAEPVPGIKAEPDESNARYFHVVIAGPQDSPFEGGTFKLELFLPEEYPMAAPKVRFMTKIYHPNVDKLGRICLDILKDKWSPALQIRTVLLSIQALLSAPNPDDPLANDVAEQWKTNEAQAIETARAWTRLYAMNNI

[2] = HEp-2 cell cytotoxicity, dose response, cytotoxicity control for RSV inhibitor project, HTS (AID 2410); assay type: functional; conditions: human respiratory syncytial virus
[3] = biological target: Glyceraldehyde-3-phosphate dehydrogenase (Homo sapiens, UniProt P04406)
[4] = biological target: Glucose-6-phosphate 1-dehydrogenase (Homo sapiens, UniProt P11413); assay: human G6PD enzyme inhibitors, dose response, selectivity assay for P. falciparum G6PD inhibitor project, biochemical, fluorescence (AID 504792); assay type: functional
[5] = biological target: Peroxisome proliferator-activated receptor gamma/Nuclear receptor coactivator 2 (Homo sapiens, UniProt P37231); assay type: functional;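 also: agonist potency for raising coactivator recruitment to the receptor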
[6] = biological target: Peroxisome proliferator-activated receptor gamma/Nuclear receptor coactivator 1 (Homo sapiens, UniProt P37231); assay type: functional;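 also: agonist potency as compounds enhance coactivator SRC-1 recruitment to PPARgamma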
[7] = biological target: Peroxisome proliferator-activated receptor gamma/Nuclear receptor coactivator 3 (Homo sapiens, UniProt P37231); assay type: functional;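 also: agonist potency for raising coactivator recruitment to the receptor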
HEK293 [8] = assay: NOD2 signaling inhibitors in MDP-stimulated cells, cell-based, uHTS, luminescence (AID 2001); assay type: functional; conditions: Homo sapiens
Tumor necrosis factor = Tumor necrosis factor (Homo sapiens, UniProt P01375); assay: TNFa-triggered NF-kB activation inhibitors, SAR follow-up, cell-based, revised (AID 2337); assay type: functional
HEK293 [9] = assay: cells; assay type: functional, cell-based; conditions: Homo sapiens
HEK293 [10] = assay: cells; assay type: functional, cell-based; conditions: Homo sapiens; remark: listed apart in the source
HEK293 [11] = assay: cells; conditions: Homo sapiens
[12] = biological target: T2, Nucleotide-binding oligomerization domain-containing protein 1 (Homo sapiens, UniProt Q9Y239); assay: NOD1 signaling inhibitors, SAR follow-up, revised (AID 2333); assay type: functional
T2 sequence (Q9Y239 whole entry): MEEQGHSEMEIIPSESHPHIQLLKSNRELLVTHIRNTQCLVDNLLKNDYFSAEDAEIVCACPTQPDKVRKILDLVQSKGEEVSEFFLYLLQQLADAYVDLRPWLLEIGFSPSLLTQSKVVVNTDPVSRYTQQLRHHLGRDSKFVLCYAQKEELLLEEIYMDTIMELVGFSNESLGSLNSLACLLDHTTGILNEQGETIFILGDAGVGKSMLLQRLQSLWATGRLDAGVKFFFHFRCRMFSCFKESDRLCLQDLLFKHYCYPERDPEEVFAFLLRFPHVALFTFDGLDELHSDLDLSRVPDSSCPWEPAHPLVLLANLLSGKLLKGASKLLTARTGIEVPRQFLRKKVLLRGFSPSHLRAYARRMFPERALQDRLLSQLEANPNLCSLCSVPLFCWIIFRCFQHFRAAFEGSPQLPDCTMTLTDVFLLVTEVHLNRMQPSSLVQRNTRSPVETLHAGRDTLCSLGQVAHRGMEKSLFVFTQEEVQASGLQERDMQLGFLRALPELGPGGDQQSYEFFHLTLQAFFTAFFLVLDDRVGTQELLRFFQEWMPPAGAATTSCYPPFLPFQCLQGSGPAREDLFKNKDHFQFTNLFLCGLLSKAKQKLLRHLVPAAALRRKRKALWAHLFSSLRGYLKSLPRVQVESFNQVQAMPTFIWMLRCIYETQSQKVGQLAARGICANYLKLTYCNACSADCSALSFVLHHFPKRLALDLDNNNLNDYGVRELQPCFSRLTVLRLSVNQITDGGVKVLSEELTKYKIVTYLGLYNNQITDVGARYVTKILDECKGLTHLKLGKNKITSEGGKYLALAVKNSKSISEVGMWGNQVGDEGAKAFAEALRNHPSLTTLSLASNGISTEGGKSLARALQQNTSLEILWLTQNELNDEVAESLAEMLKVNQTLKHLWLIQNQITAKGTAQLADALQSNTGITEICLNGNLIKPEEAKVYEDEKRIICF

HEK293 [13] = assay: NOD1 signaling inhibitors, primary screen, cell-based, luminescence, uHTS (AID 1578); assay type: functional; conditions: Homo sapiens
[14] = biological target: Heat shock protein HSP 90-alpha (Homo sapiens, UniProt P07900); assay type: functional, organism-based
Vero = assay: cells; assay type: functional; conditions: Chlorocebus sabaeus
[15] = biological target: T3, Microphthalmia-associated transcription factor (Homo sapiens, UniProt O75030); assay: TRPM1 promoter luciferase signal decrease, dose response, MITF inhibitor project, cell-based, SK-MEL-5, cherry-picked, set 3 (AID 493073); assay type: functional
T3 sequence (O75030 whole entry): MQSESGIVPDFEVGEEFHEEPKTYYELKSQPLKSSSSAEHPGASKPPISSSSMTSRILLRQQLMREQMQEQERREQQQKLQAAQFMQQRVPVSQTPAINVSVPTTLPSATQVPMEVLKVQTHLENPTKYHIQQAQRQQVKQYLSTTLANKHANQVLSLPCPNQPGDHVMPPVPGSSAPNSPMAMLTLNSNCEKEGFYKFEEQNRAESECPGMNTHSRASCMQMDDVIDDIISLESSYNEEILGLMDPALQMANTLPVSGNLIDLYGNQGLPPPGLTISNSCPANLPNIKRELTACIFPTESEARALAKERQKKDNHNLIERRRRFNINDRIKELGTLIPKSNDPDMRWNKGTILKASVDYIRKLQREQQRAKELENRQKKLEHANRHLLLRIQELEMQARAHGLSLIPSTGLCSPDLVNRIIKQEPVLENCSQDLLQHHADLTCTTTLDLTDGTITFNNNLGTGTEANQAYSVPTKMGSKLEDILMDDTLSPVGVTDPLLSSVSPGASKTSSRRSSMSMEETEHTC

[16] = biological target: T4, Heat shock factor protein 1 (Mus musculus, UniProt P38532); assay: HSF1 potentiators in luciferase reporter cells, confirmation, cell-based, NIH3T3, luminescence, dose retest (AID 435004); assay type: functional;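 also: stress induced by proteasome inhibitor MG132 added 30 min after compound; luciferase reporter driven by HSF1 response element in NIH3T3 cells; actives raise luminescence as potentiators of the MG132 stress response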
T4 sequence (P38532 whole entry): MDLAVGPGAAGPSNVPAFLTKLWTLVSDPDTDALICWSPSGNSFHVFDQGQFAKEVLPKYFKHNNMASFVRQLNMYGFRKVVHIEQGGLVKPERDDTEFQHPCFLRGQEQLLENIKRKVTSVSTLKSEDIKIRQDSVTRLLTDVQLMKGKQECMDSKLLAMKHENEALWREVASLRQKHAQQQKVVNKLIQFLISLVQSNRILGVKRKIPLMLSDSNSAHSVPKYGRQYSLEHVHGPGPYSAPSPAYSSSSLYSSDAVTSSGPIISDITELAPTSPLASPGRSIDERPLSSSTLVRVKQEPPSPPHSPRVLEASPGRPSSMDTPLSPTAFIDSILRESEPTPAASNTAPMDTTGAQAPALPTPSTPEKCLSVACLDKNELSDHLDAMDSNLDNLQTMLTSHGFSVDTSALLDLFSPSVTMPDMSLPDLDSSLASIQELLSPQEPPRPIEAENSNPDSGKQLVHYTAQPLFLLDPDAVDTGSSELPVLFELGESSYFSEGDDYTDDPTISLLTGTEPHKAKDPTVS

Peroxisome proliferator-activated receptor gamma/Nuclear receptor coactivator 3, sequence (P37231 whole entry): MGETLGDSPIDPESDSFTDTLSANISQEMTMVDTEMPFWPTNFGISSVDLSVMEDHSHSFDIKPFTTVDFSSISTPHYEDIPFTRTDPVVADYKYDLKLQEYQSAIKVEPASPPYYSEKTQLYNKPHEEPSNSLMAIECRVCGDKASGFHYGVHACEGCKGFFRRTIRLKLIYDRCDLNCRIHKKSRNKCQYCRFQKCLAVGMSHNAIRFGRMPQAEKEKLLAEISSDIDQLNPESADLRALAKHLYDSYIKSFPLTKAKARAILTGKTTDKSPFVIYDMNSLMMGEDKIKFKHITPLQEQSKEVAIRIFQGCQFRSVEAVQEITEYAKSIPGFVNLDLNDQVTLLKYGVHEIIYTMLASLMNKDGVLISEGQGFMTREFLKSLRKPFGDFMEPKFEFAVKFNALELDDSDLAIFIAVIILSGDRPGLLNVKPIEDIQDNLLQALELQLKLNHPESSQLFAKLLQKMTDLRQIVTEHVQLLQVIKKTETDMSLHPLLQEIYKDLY
Peroxisome proliferator-activated receptor gamma/Nuclear receptor coactivator 3, sequence (Q9Y6Q9 whole entry, further chain): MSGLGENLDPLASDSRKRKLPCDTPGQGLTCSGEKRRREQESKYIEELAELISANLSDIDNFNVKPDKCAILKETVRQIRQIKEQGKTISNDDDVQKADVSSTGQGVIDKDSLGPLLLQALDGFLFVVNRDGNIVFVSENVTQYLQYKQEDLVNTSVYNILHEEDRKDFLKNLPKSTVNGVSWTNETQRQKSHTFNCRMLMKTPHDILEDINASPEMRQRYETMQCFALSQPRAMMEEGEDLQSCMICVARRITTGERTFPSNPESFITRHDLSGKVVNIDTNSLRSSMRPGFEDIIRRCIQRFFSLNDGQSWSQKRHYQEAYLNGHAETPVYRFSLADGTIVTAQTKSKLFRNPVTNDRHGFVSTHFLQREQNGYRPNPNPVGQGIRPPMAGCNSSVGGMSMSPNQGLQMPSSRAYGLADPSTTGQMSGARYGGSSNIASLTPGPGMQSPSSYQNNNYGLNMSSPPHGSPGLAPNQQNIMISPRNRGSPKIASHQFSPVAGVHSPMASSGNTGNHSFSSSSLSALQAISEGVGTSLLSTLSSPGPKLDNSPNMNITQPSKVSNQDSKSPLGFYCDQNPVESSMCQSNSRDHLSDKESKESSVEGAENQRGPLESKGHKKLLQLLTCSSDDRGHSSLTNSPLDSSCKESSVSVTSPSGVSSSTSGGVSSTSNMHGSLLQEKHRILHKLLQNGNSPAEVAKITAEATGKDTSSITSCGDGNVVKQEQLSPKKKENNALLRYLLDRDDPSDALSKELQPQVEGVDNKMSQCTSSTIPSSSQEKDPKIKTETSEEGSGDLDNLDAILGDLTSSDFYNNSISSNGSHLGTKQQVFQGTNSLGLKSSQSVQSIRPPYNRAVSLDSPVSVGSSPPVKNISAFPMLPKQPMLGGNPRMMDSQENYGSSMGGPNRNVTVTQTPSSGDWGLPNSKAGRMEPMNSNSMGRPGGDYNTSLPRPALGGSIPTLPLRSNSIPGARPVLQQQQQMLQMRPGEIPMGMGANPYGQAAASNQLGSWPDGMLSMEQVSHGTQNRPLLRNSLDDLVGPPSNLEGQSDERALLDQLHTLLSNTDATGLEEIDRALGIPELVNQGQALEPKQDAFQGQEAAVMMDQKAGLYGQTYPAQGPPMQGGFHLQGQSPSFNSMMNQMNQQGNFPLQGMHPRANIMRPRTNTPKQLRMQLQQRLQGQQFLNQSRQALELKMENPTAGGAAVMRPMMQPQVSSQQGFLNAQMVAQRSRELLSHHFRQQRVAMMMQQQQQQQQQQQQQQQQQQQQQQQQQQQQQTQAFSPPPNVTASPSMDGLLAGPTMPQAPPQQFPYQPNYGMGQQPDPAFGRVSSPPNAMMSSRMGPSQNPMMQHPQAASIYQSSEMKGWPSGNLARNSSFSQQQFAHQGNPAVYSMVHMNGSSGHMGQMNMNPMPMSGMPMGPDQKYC
Peroxisome proliferator-activated receptor gamma/Nuclear receptor coactivator 1, sequence (P37231 whole entry): as the sequence (P37231 whole entry) above
Peroxisome proliferator-activated receptor gamma/Nuclear receptor coactivator 1, sequence (Q15788 whole entry, further chain): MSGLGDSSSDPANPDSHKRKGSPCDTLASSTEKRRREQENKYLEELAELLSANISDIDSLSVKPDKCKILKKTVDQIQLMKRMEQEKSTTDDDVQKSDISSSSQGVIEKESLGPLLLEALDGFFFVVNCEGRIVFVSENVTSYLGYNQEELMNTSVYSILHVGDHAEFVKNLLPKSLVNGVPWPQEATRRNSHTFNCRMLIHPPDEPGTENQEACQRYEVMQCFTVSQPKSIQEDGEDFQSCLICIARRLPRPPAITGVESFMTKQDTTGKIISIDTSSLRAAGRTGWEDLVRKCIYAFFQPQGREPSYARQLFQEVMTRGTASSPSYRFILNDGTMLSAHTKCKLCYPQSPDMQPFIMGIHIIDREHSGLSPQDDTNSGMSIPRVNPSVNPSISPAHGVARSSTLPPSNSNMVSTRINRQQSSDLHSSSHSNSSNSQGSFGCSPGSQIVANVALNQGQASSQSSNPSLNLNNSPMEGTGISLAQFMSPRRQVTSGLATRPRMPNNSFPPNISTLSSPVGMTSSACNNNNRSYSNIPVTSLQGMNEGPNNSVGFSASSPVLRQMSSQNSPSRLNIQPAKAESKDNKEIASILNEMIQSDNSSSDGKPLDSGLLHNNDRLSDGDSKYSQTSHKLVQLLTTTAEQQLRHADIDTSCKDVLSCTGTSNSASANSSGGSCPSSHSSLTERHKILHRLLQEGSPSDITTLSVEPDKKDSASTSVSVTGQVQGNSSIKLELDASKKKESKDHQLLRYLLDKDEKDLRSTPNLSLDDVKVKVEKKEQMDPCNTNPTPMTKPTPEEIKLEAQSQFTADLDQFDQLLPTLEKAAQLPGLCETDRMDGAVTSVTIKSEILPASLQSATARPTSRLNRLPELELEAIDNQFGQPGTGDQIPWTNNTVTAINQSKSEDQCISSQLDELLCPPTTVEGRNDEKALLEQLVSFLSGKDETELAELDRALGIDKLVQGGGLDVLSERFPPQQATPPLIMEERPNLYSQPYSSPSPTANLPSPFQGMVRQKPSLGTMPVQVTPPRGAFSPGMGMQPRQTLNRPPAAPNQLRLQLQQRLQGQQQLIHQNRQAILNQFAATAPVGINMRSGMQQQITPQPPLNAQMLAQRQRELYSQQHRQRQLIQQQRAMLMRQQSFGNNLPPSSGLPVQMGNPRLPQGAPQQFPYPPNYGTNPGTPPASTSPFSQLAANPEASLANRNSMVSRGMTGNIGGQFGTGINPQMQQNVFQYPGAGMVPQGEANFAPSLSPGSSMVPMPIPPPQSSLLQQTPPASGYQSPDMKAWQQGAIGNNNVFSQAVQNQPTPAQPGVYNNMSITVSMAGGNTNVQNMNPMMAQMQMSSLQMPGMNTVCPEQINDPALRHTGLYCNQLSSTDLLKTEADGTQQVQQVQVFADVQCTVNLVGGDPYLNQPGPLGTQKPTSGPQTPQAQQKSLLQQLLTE
Tumor necrosis factor, sequence (P01375 whole entry): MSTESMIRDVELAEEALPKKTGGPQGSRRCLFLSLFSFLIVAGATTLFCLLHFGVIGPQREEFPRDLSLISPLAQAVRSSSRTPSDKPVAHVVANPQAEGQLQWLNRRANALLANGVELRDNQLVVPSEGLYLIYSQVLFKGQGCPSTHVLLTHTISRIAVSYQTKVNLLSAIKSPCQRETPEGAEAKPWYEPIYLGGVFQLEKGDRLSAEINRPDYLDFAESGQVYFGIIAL
Glucose-6-phosphate 1-dehydrogenase, sequence (P11413 whole entry): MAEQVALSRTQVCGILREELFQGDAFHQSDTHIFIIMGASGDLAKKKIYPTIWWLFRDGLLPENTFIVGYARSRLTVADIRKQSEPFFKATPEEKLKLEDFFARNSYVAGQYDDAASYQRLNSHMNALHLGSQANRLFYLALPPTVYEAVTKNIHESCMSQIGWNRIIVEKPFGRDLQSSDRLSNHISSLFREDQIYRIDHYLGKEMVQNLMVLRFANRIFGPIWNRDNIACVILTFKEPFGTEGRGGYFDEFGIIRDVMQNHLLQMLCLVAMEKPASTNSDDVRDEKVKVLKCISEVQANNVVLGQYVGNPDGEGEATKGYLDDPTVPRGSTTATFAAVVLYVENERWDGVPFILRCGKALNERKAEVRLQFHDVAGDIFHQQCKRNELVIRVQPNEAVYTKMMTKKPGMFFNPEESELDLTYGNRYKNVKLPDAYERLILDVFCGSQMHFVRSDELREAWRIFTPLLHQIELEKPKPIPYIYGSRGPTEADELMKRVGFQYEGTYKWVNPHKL
Glyceraldehyde-3-phosphate dehydrogenase, sequence (P04406 whole entry): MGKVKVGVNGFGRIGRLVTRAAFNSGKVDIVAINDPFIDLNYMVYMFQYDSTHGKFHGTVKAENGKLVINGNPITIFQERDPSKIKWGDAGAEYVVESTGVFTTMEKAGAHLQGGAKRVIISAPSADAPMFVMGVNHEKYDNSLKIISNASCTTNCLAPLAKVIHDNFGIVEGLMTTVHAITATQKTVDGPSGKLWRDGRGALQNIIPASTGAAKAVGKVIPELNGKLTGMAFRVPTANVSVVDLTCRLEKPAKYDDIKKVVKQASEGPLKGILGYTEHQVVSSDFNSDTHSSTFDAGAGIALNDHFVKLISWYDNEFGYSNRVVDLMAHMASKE

For `COc1ccc(S(=O)(=O)N2CCN(c3ccc4nnc(-c5ccccc5)n4n3)CC2)cc1`, the IC50 [1] was > 20 µM (inactive) and the CC50 [2] was > 50 µM (active).
For `O=C(O)c1cc(NS(=O)(=O)c2cc([N+](=O)[O-])ccc2Cl)ccc1O`, the IC50 [3] was > 100 µM (not active).
In the case of `CCn1c(=O)n(CC)c2cc(N3CCCC3)c(NC(=O)c3cccc(C)c3)cc21`, the IC50 [4] is reported as > 80 µM (inactive).
With `Cc1n[nH]c(C)c1S(=O)(=O)N(CC(=O)Nc1ccc2c(c1)OCCO2)c1ccc(C(C)C)cc1` the EC50 [5] was > 79.4 µM (not active), the EC50 [6] was > 79.4 µM (not active) and the EC50 [7] was > 79.4 µM (not active).
With `COc1ccc(CNS(=O)(=O)c2ccc3c(c2)CC(C)N3C(=O)C2CC2)cc1` (stereo not given) the IC50 (HEK293 [8]) was 12.5 µM (inactive), the IC50 (Tumor necrosis factor) was > 20 µM (inactive) and the IC50 (HEK293 [9]) was 7.96 µM (active). For the same compound, the IC50 (HEK293 [10]) was 14.8 µM (active), the IC50 (HEK293 [11]) was > 20 µM (inactive) and the IC50 [12] was 13.1 µM (active). The EC50 (HEK293 [13]) was 3.88 µM (active).
For `CCOc1cccc(C=NN=C(S)Nc2ccccc2[N+](=O)[O-])c1O`, the IC50 (Tumor necrosis factor) was 0.414 µM (active), the IC50 (HEK293 [11]) was > 20 µM (inactive) and the IC50 [12] was 8.23 µM (active).
In the case of `O=C(c1cnc(-c2ccc(Cl)cc2)s1)c1ccc(Cl)cc1Cl`, the EC50 [5] is reported as 18.7 µM (not active), the EC50 [6] is reported as 30.8 µM (not active) and the EC50 [7] is reported as 38.7 µM (not active).
For `O=[N+]([O-])/C=C\c1ccc(N2CCCC2)c(F)c1`, the AC50 [14] was 8.22 µM (active), the CC50 (Vero) was 18.6 µM (active) and the AC50 [15] was 13.4 µM (active).
In the case of `COc1ccccc1CN1CCC(CNS(=O)(=O)c2cc(-c3cc(C)no3)ccc2OC)CC1`, the CC50 (Vero) is reported as > 25 µM (active).
In the case of `COC(=O)c1ccc(C(=O)OC)c(NC(=O)C(C)(C)C)c1`, the EC50 [16] is reported as > 260 µM (inactive), the EC50 [5] is reported as > 79.4 µM (not active) and the EC50 [6] is reported as > 79.4 µM (not active). The EC50 [7] was > 79.4 µM (not active).
For `COC(=O)c1c(NC(=O)C(=O)N2CCCC2)sc2c1CC(C)(C)OC2`, the IC50 [1] was > 20 µM (inactive).
With `CCOc1ccccc1NC(=O)CCCc1nc(O)c2ccccc2n1` the IC50 [4] was 71.7 µM (inactive).
